In brackets after ≈: the same amount, converted by molar mass.
Key:
[1] = system: S. pyogenes L 49; experiment: In vivo test in mice experimentally infected with S. pyogenes L 49 (ED50); details: mice infected with S. pyogenes L 49; for ED50, route of administration os.: oral
[2] = Acid-base titration (pK); type: physicochemical; details: for pK1 / pK2: acid-base titration in METHYLCELLOSOLVE/H2O 4:1 (v/v), 0.01N KOH, salt form per Table IV
Protocol: The following table (Table IV) reports the acid-base titration data of some representative compounds of the invention. The assays were carried out in METHYLCELLOSOLVE/H2 O, 4:1(v/v). A sample is dissolved in METHYLCELLOSOLVE/H2 O, 4:1(v/v) (10 umole in about 20 ml) and then 0.01N HCl (2 ml) is added and the mixture is titrated with 0.01N KOH in the same solvent mixture.

[3] = system: S. aureus ATCC 6538; experiment: In vitro antibacterial activity, standard agar-dilution test (MIC); type: cell-based; details: inoculum about 10^4 CFU/ml, 18-24 h at 37° C.
Protocol: (§1) The culture medium ISOSENSITEST BROTH (Oxoid) and the colture medium TODD-[…] BROTH (Difco) are used for growing staphylococci and streptococci, respectively. Broth cultures are diluted so that the final inoculum is about 10^4 colony forming units/ml (CFU/ml).

[4] = system: S. pyogenes C 203; experiment: as above; type: cell-based; details: inoculum about 10^4 CFU/ml, 18-24 h at 37° C.
Protocol: as §1

[5] = system: E. coli SKF 12140; experiment: as above; type: cell-based; details: inoculum about 10^4 CFU/ml, 18-24 h at 37° C.
Protocol: as §1

[6] = system: S. faecalis ATCC 7080; experiment: as above; type: cell-based; details: inoculum about 10^4 CFU/ml, 18-24 h at 37° C.
Protocol: as §1

[7] = system: S. pneumoniae UC 41; experiment: as above; type: cell-based; details: inoculum about 10^4 CFU/ml, 18-24 h at 37° C.
Protocol: as §1

[8] = system: Pseudomonas aeruginosa ATCC 10145; experiment: as above; type: cell-based; details: inoculum about 10^4 CFU/ml, 18-24 h at 37° C.
Protocol: as §1

[9] = system: S. aureus Tour; experiment: as above; type: cell-based; details: inoculum about 10^4 CFU/ml, 18-24 h at 37° C.
Protocol: as §1

[10] = system: Proteus vulgaris X 19H ATCC 881; experiment: as above; type: cell-based; details: inoculum about 10^4 CFU/ml, 18-24 h at 37° C.
Protocol: as §1

[11] = system: S. epidermidis ATCC 12228; experiment: as above; type: cell-based; details: inoculum about 10^4 CFU/ml, 18-24 h at 37° C.
Protocol: as §1

[12] = Isoelectric point (pI) by isoelectrofocusing with bioautography detection; type: physicochemical; details: IEF technique, polyacrylamide gel
From the text: The isoelectrofocusing (IEF) technique coupled with bioautography detection has been used for the determination of the pI of representative compounds of the invention using the following materials: AMPHOLINE carrier ampholytes (40% w/v) were purchased from LKB Produketer AB, Bromma, Sweden. Acrylamide, N,N'-methylenbisacrylamide (BIS), N,N,N',N'-tetramethylethylenediamine (TEMED) and ammonium persulfate were from Bio Rad Laboratorie, Richmond, Calif., USA. Glycerol and Antibiotic agar N. 1 (Grove and Randall medium N. 1) were from E. Merck Darmstadt FRG. GEL FIX polyester sheets were purchased from Serva Feinbiochemica Heidelberg. Phenolindo (2,6-dichlorophenol) came from BDH Chemicals Ltd. Poole, England.
IEF was made on gel slab using a LKB MULITPHOR 2117 cell and a Bio-Rad Power Supply Model 1420A. Slabs of 24.5×11.5 cm and 1 mm thickness were prepared on a sheet of GEL FIX. Polyacrylamide gels with a concentration of 8% T and with a cross-linkage of 4% C (30% T stock solution was prepared by dissolving 28.8 g of acrylamide and 1.2 g of bis-acrylamide in 100 ml distilled water), glycerol, 3.5% v/v, 2% AMPHOLINE, 0.05% ammonium persulphate as catalyst and 0.05% TEMED as accelerator. The carrier ampholite composition for 35 ml gelling solution was as follows:
The electrode solutions, as recommended by LKB for the respective pH range, were:
The gel was cooled to 4° C. with the aid of a LKB 2209 refrigerated constant temperature circulator. After prefocusing for 30 min. at 5 W, the samples (20 μl containing 0.2 to 2.5 μg of antibiotic) were loaded into the slot at the cathodic side. Electrofocusing was performed using 10 W constant power and was completed after 3-31/2 hours with a final potential of 1400 V.
The pH values were determined by dividing a portion of the gel into 1 cm sections, and eluting the individual pieces at room temperature with 1 ml of 10 mM KCl prior to pH readings.
The isoelectric point of each antibiotic was determined by interpolation on a curve obtained by plotting pH values versus the distance from the anode.
Polyacrylamide gel was placed on a 3 mm layer of agar medium N. 1 inoculated with 1% of Bacillus subtilis ATCC 6633 spore (0.5 OD at 600 nm). After 10 min the gel was removed and the plate was incubated overnight at 37° C. and examined for inhibition zones. The contrast between the area of lysis and that of bacterial growth was enhanced by use of Phenolindo(2,6-dichlorophenol) 1% w/v (oxidation-reduction indicator).

Row | Compound | ED50, route of administration os. [1] [mg/kg] | ED50, route of administration s.c [1] [mg/kg] | pK1 [2] | pK2 [2] | MIC S. aureus ATCC 6538 [3] [µg/mL] | MIC S. pyogenes C 203 [4] [µg/mL] | MIC E. coli SKF 12140 [5] [µg/mL] | MIC S. faecalis ATCC 7080 [6] [µg/mL] | MIC S. pneumoniae UC 41 [7] [µg/mL] | MIC Pseudomonas aeruginosa ATCC 10145 [8] [µg/mL] | MIC S. aureus Tour [9] [µg/mL] | MIC Proteus vulgaris X 19H ATCC 881 [10] [µg/mL] | MIC S. epidermidis ATCC 12228 [11] [µg/mL] | Isoelectric point (pI) [12] | pK3 (value between brackets) ([2]; between brackets: due to titration of the carboxylic function of the salifying acid)
1 | CCN(CC)CCCNC(=O)C1NC(=O)C2NC(=O)C(NC(=O)C3NC(=O)C4NC(=O)C(Cc5ccc(c(Cl)c5)Oc5cc3cc(c5O)Oc3ccc(cc3Cl)C2O)NC(=O)C(N)c2ccc(O)c(c2)Oc2cc(O)cc4c2)c2ccc(O)c(c2)-c2c(O)cc(O)cc21 (centres unmarked) [Compound 19] | > 300 | 0.18 | 6.30 | 8.0 | 0.12 (≈ 0.0915 µM) | 0.06 (≈ 0.0458 µM) | 8 (≈ 6.1 µM) | 0.12 (≈ 0.0915 µM) | 0.12 (≈ 0.0915 µM) | 32 (≈ 24.4 µM) | 0.12 (≈ 0.0915 µM) | 32 (≈ 24.4 µM) | 0.032 (≈ 0.0244 µM) | 8.7 | 
2 | CCCCN(CCCC)CCCNC(=O)C1NC(=O)C2NC(=O)C(NC(=O)C3NC(=O)C4NC(=O)C(Cc5ccc(c(Cl)c5)Oc5cc3cc(c5O)Oc3ccc(cc3Cl)C2O)NC(=O)C(N)c2ccc(O)c(c2)Oc2cc(O)cc4c2)c2ccc(O)c(c2)-c2c(O)cc(O)cc21 (centres unmarked) [Compound 20] | > 300 | 0.72 | 6.1 | 8.3 | 0.6 (≈ 0.439 µM) | 0.06 (≈ 0.0439 µM) | 8 (≈ 5.85 µM) | 0.25 (≈ 0.183 µM) | 0.12 (≈ 0.0878 µM) | 64 (≈ 46.8 µM) | 0.25 (≈ 0.183 µM) | 32 (≈ 23.4 µM) | 0.063 (≈ 0.0461 µM) | 8.7 | 
3 | CN(C)CCCNC(=O)C1NC(=O)C2NC(=O)C(NC(=O)C3NC(=O)C4NC(=O)C(Cc5ccc(c(Cl)c5)Oc5cc3cc(c5O)Oc3ccc(cc3Cl)C2O)NC(=O)C(N)c2ccc(O)c(c2)Oc2cc(O)cc4c2)c2ccc(O)c(c2)-c2c(O)cc(O)cc21 (centres unmarked) [Compound 18] | 140 | 0.31 |  |  | 0.06 (≈ 0.0468 µM) | 0.06 (≈ 0.0468 µM) | 8 (≈ 6.23 µM) | 0.12 (≈ 0.0935 µM) | 0.12 (≈ 0.0935 µM) | 32 (≈ 24.9 µM) | 0.12 (≈ 0.0935 µM) | 16 (≈ 12.5 µM) | 0.016 (≈ 0.0125 µM) | 8.9 | 
4 | NC1C(=O)NC2Cc3ccc(c(Cl)c3)Oc3cc4cc(c3O)Oc3ccc(cc3Cl)C(O)C3NC(=O)C(NC(=O)C4NC(=O)C(NC2=O)c2cc(O)cc(c2)Oc2cc1ccc2O)c1ccc(O)c(c1)-c1c(O)cc(O)cc1C(C(=O)NCCN1CCOCC1)NC3=O (centres unmarked) [Compound 21] | > 300 | 2.2 | 5.01 | 6.8 | 0.06 (≈ 0.0458 µM) | 0.12 (≈ 0.0915 µM) | 16 (≈ 12.2 µM) | 0.12 (≈ 0.0915 µM) | 0.12 (≈ 0.0915 µM) | 64 (≈ 48.8 µM) | 0.12 (≈ 0.0915 µM) | 128 (≈ 97.6 µM) | 0.016 (≈ 0.0122 µM) | 7.9 | 
5 | CN1CCN(C(=O)C2NC(=O)C3NC(=O)C(NC(=O)C4NC(=O)C5NC(=O)C(Cc6ccc(c(Cl)c6)Oc6cc4cc(c6O)Oc4ccc(cc4Cl)C3O)NC(=O)C(N)c3ccc(O)c(c3)Oc3cc(O)cc5c3)c3ccc(O)c(c3)-c3c(O)cc(O)cc32)CC1 (centres unmarked) [Compound 23] | > 300 | 0.95 | 5.6 | 6.8 | 0.06 (≈ 0.0468 µM) | 0.12 (≈ 0.0937 µM) | 16 (≈ 12.5 µM) | 0.12 (≈ 0.0937 µM) | 0.12 (≈ 0.0937 µM) | 32 (≈ 25 µM) | 0.12 (≈ 0.0937 µM) | 64 (≈ 50 µM) | 0.032 (≈ 0.025 µM) | 8.0 | 
6 | NC1C(=O)NC2Cc3ccc(c(Cl)c3)Oc3cc4cc(c3O)Oc3ccc(cc3Cl)C(O)C3NC(=O)C(NC(=O)C4NC(=O)C(NC2=O)c2cc(O)cc(c2)Oc2cc1ccc2O)c1ccc(O)c(c1)-c1c(O)cc(O)cc1C(C(=O)N1CCOCC1)NC3=O (centres unmarked) [Compound 25] | > 300 | 1.02 | 6.6 |  | 0.12 (≈ 0.0946 µM) | 0.12 (≈ 0.0946 µM) | 16 (≈ 12.6 µM) | 0.12 (≈ 0.0946 µM) | 0.12 (≈ 0.0946 µM) | 64 (≈ 50.5 µM) | 0.12 (≈ 0.0946 µM) | 64 (≈ 50.5 µM) | 0.016 (≈ 0.0126 µM) | 7.8 | 
7 | NC1C(=O)NC2Cc3ccc(c(Cl)c3)Oc3cc4cc(c3O)Oc3ccc(cc3Cl)C(O)C3NC(=O)C(NC(=O)C4NC(=O)C(NC2=O)c2cc(O)cc(c2)Oc2cc1ccc2O)c1ccc(O)c(c1)-c1c(O)cc(O)cc1C(C(=O)N1CCN(c2ccccn2)CC1)NC3=O (centres unmarked) [Compound 24] | > 300 | 0.72 | 5.75 | 7.4 | 0.06 (≈ 0.0446 µM) | 0.06 (≈ 0.0446 µM) | 32 (≈ 23.8 µM) | 0.12 (≈ 0.0893 µM) | 0.06 (≈ 0.0446 µM) | > 128 | 0.12 (≈ 0.0893 µM) | > 128 | 0.063 (≈ 0.0469 µM) |  | 6.6
8 | CCOC(=O)CNC(=O)C1NC(=O)C2NC(=O)C(NC(=O)C3NC(=O)C4NC(=O)C(Cc5ccc(c(Cl)c5)Oc5cc3cc(c5O)Oc3ccc(cc3Cl)C2OC2OC(CO)C(O)C(O)C2NC(C)=O)NC(=O)C(N)c2ccc(O)c(c2)Oc2cc(O)cc4c2)c2ccc(O)c(c2)-c2c(O)cc(O)cc21 (centres unmarked) [Compound 16] | > 300 | 5 |  |  | 0.5 (≈ 0.336 µM) | 0.25 (≈ 0.168 µM) | 128 (≈ 86.1 µM) | 1 (≈ 0.672 µM) | 1 (≈ 0.672 µM) | > 128 | 1 (≈ 0.672 µM) | > 128 | 0.12 (≈ 0.0807 µM) | 7.8 | 
